The values below come from ChEMBL document CHEMBL3352021, “Naphthyridinone (NTD) integrase inhibitors 4. Investigating N1 acetamide substituent effects with C3 amide groups” (Bioorg Med Chem Lett, 2014).

For data set [1], the system named is Human immunodeficiency virus. Briefly: Ratio of IC50 for pseudotyped HIV by luciferase reporter gene assay in presence of human serum albumin to IC50 for pseudotyped HIV by luciferase reporter gene assay. Type of data set: functional.
In data set [2] the test system is Human immunodeficiency virus. Briefly: Antiviral activity against HIV infected in PBMC. The format is functional, organism-based. The following applies: Human immunodeficiency virus 1.
Data set [3] is described as follows: Ratio of plasma concentration in rat at 5 mg/kg, po to IC90 for HIV infected in PBMC assessed as protein-adjusted compound concentration. Details: dose 5 mg/kg, route oral; call rule not given here. The following applies: in vivo. The format is ADME, organism-based.
The nature of data set [4]: Plasma clearance in rat at 1 mg/kg, iv.
Data set [5] deals with Human immunodeficiency virus. Briefly: Antiviral activity against pseudotyped HIV by luciferase reporter gene assay in presence of human serum albumin. The following applies: Human immunodeficiency virus 1. Type of data set: functional, organism-based.
Data set [6] can be described thus: Half life in rat at 1 mg/kg, iv as bolus dose. The format is ADME, organism-based. The following applies: in vivo. Details: dose 1 mg/kg, route intravenous.
The nature of data set [7]: Ratio of plasma concentration in cynomolgus monkey at 5 mg/kg, po to IC90 for HIV infected in PBMC assessed as protein-adjusted compound concentration. Type of data set: ADME, organism-based. Details: dose 5 mg/kg, route oral. The following applies: in vivo.
The target in data set [8] is Human immunodeficiency virus type 1 integrase (Human immunodeficiency virus 1, UniProt Q7ZJM1). Briefly: Inhibition of recombinant HIV-1 integrase by strand-transfer assay.
Data set [9] is described as follows: Oral bioavailability in dog at 5 mg/kg. The format is ADME, organism-based, Canis lupus familiaris. The following applies: in vivo.
A short description of data set [10]: Plasma clearance in dog at 1 mg/kg, iv.
Data set [11] in a line: Half life in dog at 1 mg/kg, iv as bolus dose. The following applies: in vivo. Type of data set: ADME, organism-based, Canis lupus familiaris. Details: dose 1 mg/kg, route intravenous.
For data set [12], the system named is Human immunodeficiency virus. Briefly: Antiviral activity against HIV infected in PBMC assessed as protein-adjusted compound concentration. Type of data set: functional, organism-based. The following applies: Human immunodeficiency virus 1.
Data set [13] in a line: Ratio of plasma concentration in dog at 5 mg/kg, po to IC90 for HIV infected in PBMC assessed as protein-adjusted compound concentration. The following applies: in vivo. Details: dose 5 mg/kg, route oral. Type of data set: ADME, organism-based.
Data set [14] can be described thus: Plasma clearance in cynomolgus monkey at 1 mg/kg, iv.
Data set [15] is described as follows: Oral bioavailability in cynomolgus monkey at 5 mg/kg. Type of data set: ADME, organism-based, Macaca fascicularis. The following applies: in vivo.
In another data set the target is T1, Cytochrome P450 1A2 (Homo sapiens, UniProt P05177).
T1 sequence (P05177 whole entry): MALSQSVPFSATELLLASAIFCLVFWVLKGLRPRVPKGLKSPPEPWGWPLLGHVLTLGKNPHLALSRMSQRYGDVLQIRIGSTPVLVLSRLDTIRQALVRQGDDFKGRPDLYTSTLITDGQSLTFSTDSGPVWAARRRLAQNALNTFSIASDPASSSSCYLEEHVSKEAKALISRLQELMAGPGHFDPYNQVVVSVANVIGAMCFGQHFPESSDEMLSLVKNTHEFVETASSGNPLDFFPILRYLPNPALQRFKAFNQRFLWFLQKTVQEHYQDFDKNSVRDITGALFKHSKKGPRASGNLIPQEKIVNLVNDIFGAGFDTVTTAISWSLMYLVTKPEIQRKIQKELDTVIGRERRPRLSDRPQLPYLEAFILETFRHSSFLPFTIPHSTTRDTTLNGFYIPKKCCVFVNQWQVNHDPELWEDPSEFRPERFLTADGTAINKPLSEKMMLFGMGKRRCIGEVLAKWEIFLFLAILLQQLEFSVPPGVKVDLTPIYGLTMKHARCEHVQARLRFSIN
Briefly: Inhibition of CYP1A2 (unknown origin) at 4.7 uM. Type of data set: ADME.

A short description of data set [16]: Half life in cynomolgus monkey at 1 mg/kg, iv as bolus dose. The format is ADME, organism-based, Macaca fascicularis. Details: dose 1 mg/kg, route intravenous. The following applies: in vivo.
Data set [17] in a line: Oral bioavailability in rat at 5 mg/kg. Type of data set: ADME, organism-based. The following applies: in vivo.
For data set [18], the system named is Human immunodeficiency virus. Briefly: Antiviral activity against pseudotyped HIV by luciferase reporter gene assay. The format is functional, organism-based. The following applies: Human immunodeficiency virus 1.

Human immunodeficiency virus type 1 integrase, sequence (Q7ZJM1 whole entry): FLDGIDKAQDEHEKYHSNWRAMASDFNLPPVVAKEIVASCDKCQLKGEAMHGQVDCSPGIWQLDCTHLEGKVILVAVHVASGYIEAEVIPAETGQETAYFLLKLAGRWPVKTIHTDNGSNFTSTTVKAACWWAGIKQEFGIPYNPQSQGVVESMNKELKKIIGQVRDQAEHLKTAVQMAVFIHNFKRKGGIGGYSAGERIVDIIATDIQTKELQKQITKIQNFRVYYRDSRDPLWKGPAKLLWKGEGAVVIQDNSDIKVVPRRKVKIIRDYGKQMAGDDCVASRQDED

Regarding `CNC(=O)Cn1c(=O)c(C(=O)NCCOC)c(O)c2ncc(Cc3ccc(F)cc3)cc21`, in [1], the “Ratio IC50” value was 4.5. The concentration for half-maximal inhibition (IC50) worked out at 2.3 nM in [2]; 14 nM in data set [5]; 9 nM in data set [8]; 10 nM in data set [12]; 3 nM in data set [18]. For the same compound, the Ratio is on record as 56 in [3], 0.8 in [7] and 0.1 in [13]. In addition, the results for the clearance in data set [4], in data set [10] and in data set [14] were 0.5 mL/min/kg, 13.8 mL/min/kg and 2 mL/min/kg, respectively. Moreover, the figures for the half-life in data set [6], in data set [11] and in data set [16] were 3.7 h, 1.2 h and 2.3 h, respectively. Moreover, the bioavailability came out at 111% in [9], 19% in data set [15] and 51% in data set [17]. Besides, the IC90 in data set [12] is 41 nM. Besides, on Cytochrome P450 1A2, the “inhibition (INH)” value was “Active”.
